The target of the test is T1, Separase (Homo sapiens, UniProt Q14674).
T1 construct: made in house; host or cells: 293T cells; released from IgG-Agarose by TEV protease
The test can be described thus: Fluorogenic Separase activity assay using (Rad21)2-Rh110 as substrate. Type of test: biochemical. The note with it: DMSO final concentration 2% to 38%. As for the experimental part: The substrate used in this Example is (Rad21)2-Rh110, which has two Rad21 peptide molecules (Asp-Arg-Glu-Ile-Nle-Arg) conjugated to one molecule of Rhodamine 110 (Rh110) (CPC Scientific, Sunnyvale Calif.). The assay was set up using 384-well low volume black polystyrene plates (Corning, N.Y.). Fifteen micro liter of activated Separase (˜5 ng) was mixed with 5 μl of test compound. The cleavage buffer (CB) used to dilute reagents was (30 mM Hepes-KOH pH7.7, 50 mM NaCl, 25 mM NaF, 25 mM KCl, 5 mM MgCl2, 1.5 mM ATP, and 1 mM EGTA). The mixture was incubated at room temperature for 1 h, and then 5 μl of 0.2 mM substrate (Rad21)2-Rh110 was added. The positive control contained Separase, substrate and CB without the test compound. The negative control contained substrate and CB only. After the reaction mixture was incubated at 37° C. for 3 h, the relative fluorescence intensity was measured (without stopping the enzymatic activity) at λex=390 nm/λem=450 nm for […] (AMC) released from Rad21-MCA or λex=490 nm/λem=528 nm for Rh110 released from (Rad21)2-Rh110 using a Synergy™ 4 Multi-Mode Microplate Reader (BioTek Instruments Inc., Winooski, Vt.).
Different amounts of Sepin-1 were mixed with activated Separase for 30 min before substrate (Rad21)2-Rh110 was added. After 3 h incubation at 37° C., the fluorescence intensity of Rh110 was determined. IC50 was calculated using either KaleidaGraph program (Synerge software, Reading, Pa.) or four parameter logistic equation (4-parameter dose-response curve fit): Inhibition of Activity (%)=min+(max−min)/{1+(log [M]/IC50)}^Hill Slop, where “min” and “max” represent minimal and maximal activity inhibition, respectively. Hill Slop is the slope of the curve at its midpoint. To identify the mode of Sepin-1 interacting with Separase, different amounts of both Sepin-1 and (Rad21)2-Rh110 were used in the Separase activity assay.

Consider one compound from patent publication US10052310B2, “Separase inhibitors and uses thereof” (Baylor College of Medicine, priority 2013, dated 2018).

T1 sequence (Q14674 whole entry): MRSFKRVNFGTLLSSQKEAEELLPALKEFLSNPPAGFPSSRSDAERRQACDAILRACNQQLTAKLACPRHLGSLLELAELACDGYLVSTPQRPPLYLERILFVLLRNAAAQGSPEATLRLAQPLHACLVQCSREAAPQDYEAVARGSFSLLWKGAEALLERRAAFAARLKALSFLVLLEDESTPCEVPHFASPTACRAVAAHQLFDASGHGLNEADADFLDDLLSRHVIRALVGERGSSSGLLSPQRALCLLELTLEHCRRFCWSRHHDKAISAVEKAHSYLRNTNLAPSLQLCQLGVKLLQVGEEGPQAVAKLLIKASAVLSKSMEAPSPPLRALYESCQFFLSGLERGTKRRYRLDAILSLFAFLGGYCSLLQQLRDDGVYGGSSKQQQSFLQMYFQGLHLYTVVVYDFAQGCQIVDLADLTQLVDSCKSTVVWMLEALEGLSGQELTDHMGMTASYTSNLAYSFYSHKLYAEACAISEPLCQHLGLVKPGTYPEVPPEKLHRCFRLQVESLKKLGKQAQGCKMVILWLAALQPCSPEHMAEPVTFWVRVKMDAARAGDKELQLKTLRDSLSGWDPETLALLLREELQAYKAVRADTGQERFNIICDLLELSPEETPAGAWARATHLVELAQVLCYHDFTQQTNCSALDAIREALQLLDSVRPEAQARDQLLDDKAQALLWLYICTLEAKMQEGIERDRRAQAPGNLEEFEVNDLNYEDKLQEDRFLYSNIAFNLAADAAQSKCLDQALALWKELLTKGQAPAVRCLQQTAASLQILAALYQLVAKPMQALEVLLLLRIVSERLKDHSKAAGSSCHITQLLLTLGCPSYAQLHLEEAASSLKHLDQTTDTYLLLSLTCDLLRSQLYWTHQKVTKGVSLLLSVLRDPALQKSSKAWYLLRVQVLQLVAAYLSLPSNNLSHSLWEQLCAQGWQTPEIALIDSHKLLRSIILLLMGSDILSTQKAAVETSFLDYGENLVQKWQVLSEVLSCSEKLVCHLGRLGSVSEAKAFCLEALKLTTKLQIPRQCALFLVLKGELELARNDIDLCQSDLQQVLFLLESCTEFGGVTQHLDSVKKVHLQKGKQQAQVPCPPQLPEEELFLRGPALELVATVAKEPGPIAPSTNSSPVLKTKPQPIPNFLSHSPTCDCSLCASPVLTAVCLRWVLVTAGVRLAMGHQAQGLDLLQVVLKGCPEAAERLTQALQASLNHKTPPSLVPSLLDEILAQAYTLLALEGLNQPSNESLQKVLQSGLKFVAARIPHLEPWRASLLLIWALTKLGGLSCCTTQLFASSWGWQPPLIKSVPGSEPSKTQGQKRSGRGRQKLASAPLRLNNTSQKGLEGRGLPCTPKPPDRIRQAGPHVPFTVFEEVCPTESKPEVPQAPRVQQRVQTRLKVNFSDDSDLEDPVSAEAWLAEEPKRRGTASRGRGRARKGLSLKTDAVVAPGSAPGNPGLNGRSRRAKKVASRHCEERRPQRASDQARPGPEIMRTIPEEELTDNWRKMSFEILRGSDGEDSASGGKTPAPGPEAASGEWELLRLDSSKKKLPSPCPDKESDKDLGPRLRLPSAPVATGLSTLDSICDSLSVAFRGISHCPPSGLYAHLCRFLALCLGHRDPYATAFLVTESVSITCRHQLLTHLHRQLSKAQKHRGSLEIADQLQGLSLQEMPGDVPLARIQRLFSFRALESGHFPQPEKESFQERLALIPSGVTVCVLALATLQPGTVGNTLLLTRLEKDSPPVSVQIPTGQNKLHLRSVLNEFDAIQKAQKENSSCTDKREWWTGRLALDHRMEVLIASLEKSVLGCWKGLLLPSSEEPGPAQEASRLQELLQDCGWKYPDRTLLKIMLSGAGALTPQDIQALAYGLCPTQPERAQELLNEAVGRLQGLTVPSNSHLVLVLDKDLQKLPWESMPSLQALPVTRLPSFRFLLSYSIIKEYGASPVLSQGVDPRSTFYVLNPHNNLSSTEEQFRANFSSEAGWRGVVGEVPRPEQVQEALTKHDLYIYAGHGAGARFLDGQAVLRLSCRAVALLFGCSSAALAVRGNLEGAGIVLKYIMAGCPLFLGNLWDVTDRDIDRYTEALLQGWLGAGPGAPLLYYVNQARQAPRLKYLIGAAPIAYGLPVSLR

In the case of `C[S+](C)[O-]` [DMSO], the “IC50 of DMSO on Separase assay” value was approximately 27%.
